“Also recorded” adds a separate entry of the source. Where two headings read alike, the source gives them in different places. Positions of bridges follow the written chain, without caps; N, C: chain ends. Residues, ends and D or L forms follow the SMILES beside them.
Key:
[1] = target: S. epidermidis agr-III (Staphylococcus epidermidis, UniProt Q8VSX2); assay: cell-based; type: cell-based; settings: for QS interaction in words (inhibition / activation), S. epidermidis agr-III: fluorescent reporter strain, peptides tested at 1000, 50, 2.5, 0.125 nM or in dose-response
How it was run: (§1)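 Reporter strains (S. aureus P3-YFP, CAM 10 μg/mL; S. epidermidis P3-sGFP, ERM 10 μg/mL) diluted 1:100 in TSB with peptide (1:5 serial dilutions for IC50), 37°C shaking, 22–24 h. Fluorescence background-subtracted, OD600-normalized, relative to untreated wells; IC50 by variable-slope non-linear regression.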

[2] = target: S. epidermidis agr-II (Staphylococcus epidermidis, UniProt Q8VSX5); assay: cell-based; type: cell-based; settings: for QS interaction in words (inhibition / activation), S. epidermidis agr-II: fluorescent reporter strain, peptides tested at 1000, 50, 2.5, 0.125 nM or in dose-response
How it was run: as §1

[3] = tested on: S. aureus (SA) agr-II; settings: fluorescence, cited from earlier work
[4] = target: SA AgrC-I (Staphylococcus aureus, UniProt O07911)
[5] = target: S. aureus agr-IV (Staphylococcus aureus, UniProt Q309Z2); assay: cell-based; type: cell-based
How it was run: as §1

Sequence of S. aureus agr-IV (Q309Z2 entry or part of it): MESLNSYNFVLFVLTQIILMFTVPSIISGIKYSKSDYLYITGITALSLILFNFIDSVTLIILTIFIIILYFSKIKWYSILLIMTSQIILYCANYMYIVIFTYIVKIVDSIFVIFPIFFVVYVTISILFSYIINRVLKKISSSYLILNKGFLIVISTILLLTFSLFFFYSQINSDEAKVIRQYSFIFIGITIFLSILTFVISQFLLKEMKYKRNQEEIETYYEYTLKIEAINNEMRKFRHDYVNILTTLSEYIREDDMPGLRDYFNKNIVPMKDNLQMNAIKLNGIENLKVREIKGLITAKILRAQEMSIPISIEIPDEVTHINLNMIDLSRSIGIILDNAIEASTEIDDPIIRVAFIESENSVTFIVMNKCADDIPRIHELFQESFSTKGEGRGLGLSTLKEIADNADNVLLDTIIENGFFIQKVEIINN
Sequence of S. epidermidis agr-II (Q8VSX5 entry or part of it): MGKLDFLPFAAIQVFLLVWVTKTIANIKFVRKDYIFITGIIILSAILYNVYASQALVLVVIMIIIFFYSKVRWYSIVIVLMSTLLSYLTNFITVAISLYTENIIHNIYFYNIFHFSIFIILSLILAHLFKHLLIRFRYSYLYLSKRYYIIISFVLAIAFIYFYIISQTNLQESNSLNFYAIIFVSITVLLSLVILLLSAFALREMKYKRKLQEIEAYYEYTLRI
Sequence of SA AgrC-I (O07911 entry or part of it): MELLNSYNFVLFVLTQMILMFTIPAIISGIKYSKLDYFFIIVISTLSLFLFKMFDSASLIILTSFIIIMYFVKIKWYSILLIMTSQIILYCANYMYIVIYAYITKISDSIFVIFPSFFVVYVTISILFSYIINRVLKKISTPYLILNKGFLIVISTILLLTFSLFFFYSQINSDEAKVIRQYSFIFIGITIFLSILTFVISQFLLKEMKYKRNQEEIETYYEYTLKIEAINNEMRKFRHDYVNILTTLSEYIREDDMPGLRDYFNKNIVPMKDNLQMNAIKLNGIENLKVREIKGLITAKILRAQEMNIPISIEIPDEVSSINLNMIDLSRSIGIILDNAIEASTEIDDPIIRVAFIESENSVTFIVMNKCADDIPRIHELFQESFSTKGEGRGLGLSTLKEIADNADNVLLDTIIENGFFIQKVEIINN
Sequence of S. epidermidis agr-III (Q8VSX2 entry or part of it): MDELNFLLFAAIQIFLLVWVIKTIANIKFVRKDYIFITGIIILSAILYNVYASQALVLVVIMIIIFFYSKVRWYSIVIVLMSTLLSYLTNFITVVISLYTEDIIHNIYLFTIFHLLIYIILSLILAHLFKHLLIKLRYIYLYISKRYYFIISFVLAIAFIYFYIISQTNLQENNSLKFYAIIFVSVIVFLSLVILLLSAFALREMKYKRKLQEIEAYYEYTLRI

| Molecule | IC50 [1] [nM] | IC50 [2] [nM] | IC50 ([3]; ref (5)) [nM] | EC50 ([4]; ± SEM; determined previously; ref (1); read-out: EC50, SA AgrC-I, b-lactamase assay; cited from earlier work) [nM] | IC50 [5] [nM] | QS interaction in words (inhibition / activation), S. epidermidis agr-III [1] | QS interaction in words (inhibition / activation), S. epidermidis agr-III ([1]; listed as S. simulans AIP-I) | IC50 ([3]; ref (17)) [nM] | IC50 ([4]; read-out: IC50, SA AgrC-I, b-lactamase assay; 100 nM cognate AIP; ± SEM; -b = no inhibition recorded at the highest AIP concentration tested; determined previously; ref (1); cited from earlier work) [nM] | QS interaction in words (inhibition / activation), S. aureus agr-IV ([5]; fluorescent reporter strain, peptides tested at 1000, 50, 2.5, 0.125 nM or in dose-response) | QS interaction in words (inhibition / activation), S. epidermidis agr-II [2] | QS interaction in words (inhibition / activation), S. epidermidis agr-III ([1]; listed as S. simulans AIP-III) | QS inhibition at […], S. aureus agr-IV ([5]; […] peptide, fluorescent reporter strain) [%] | IC50 ([4]; 100 nM cognate AIP; ± SEM; -b = no inhibition recorded at the highest AIP concentration tested; determined previously; ref (1); read-out: IC50, SA AgrC-I, b-lactamase assay; cited from earlier work) [nM] |
| --- | --- | --- | --- | --- | --- | --- | --- | --- | --- | --- | --- | --- | --- | --- |
| CC[C@H](C)[C@@H]1NC(=O)[C@H](Cc2ccccc2)NC(=O)[C@H](CC(=O)O)NC(=O)[C@@H](NC(=O)[C@@H](NC(=O)[C@H](CO)NC(=O)[C@@H](N)Cc2ccc(O)cc2)[C@@H](C)O)CSC(=O)[C@H](CCSC)NC1=O [compound 1, S. aureus AIP-I] (H-YSTCDFIM; thioester 4-C) | > 1000 | > 1000 | 8 | 5.4 ± 0.5 |  |  |  |  |  |  |  |  |  |  |
| CC(C)C[C@@H]1NC(=O)[C@@H](NC(=O)[C@@H]2CCCN2C(=O)[C@H](CC(N)=O)NC(=O)[C@H](Cc2ccc(O)cc2)NC(=O)[C@@H](N)CCCCN)CSC(=O)[C@H](CC(C)C)NC(=O)[C@H](Cc2ccccc2)NC(=O)CNC1=O [compound 32, S. simulans AIP-I] (H-KYNPCLGFL; thioester 5-C; N-terminus assumed) |  | 0.26 ± 0.01 |  |  | 10 | activated; also recorded: activators | activation | 1.1 | 8.6 ± 0.5 |  |  |  |  |  |
| NCCCC[C@H](N)C(=O)N[C@@H](Cc1ccc(O)cc1)C(=O)N[C@@H](Cc1ccc(O)cc1)C(=O)N1CCC[C@H]1C(=O)N[C@H]1CSC(=O)[C@H](Cc2ccccc2)NC(=O)[C@H](Cc2ccc(O)cc2)NC(=O)CNC(=O)[C@H](Cc2c[nH]c3ccccc23)NC1=O [compound 33, S. simulans AIP-II] (H-KYYPCWGYF; thioester 5-C) | 0.6 ± 0.2 | 0.26 ± 0.08 |  |  | 31 ± 7 | inhibited; also recorded: sub-nanomolar inhibition |  |  |  | inhibited | inhibited |  |  |  |
| NCCCC[C@H](N)C(=O)N[C@@H](Cc1ccc(O)cc1)C(=O)N[C@@H](CC(N)=O)C(=O)N1CCC[C@H]1C(=O)N[C@H]1CSC(=O)[C@H](Cc2ccccc2)NC(=O)[C@H](Cc2ccc(O)cc2)NC(=O)CNC(=O)[C@H](Cc2c[nH]c3ccccc23)NC1=O [compound 34, S. simulans AIP-III] (H-KYNPCWGYF; thioester 5-C) |  | 0.11 ± 0.02 |  |  | 34 | activated; also recorded: activators |  | 6 |  |  |  | activator |  |  |
| S. aureus AIP-III D4A [compound 57, reference compound] |  |  | 0.43 |  |  | weak interference |  |  |  |  | weak interference |  | > 95 | 3.3 ± 0.7 |
